Tests used:
[1] = test system: Rice (ORYSA, Oryza sativa L. cv. Dongjin); assay: Leaf treatment test, damage to rice; assay type: in vivo
Description: (§1) Experimental Example 1: Leaf Treatment Test
(§2) Seeds of rice, wheat, barley, corn, cotton, barnyard grass, common sorgum, large crabgrass and fall panicum were seeded at a pot with a surface area of 600 cm^2. When barnyard grass grown in a green house kept at 20-30° C. had three leaves, wettable powder prepared by mixing 1 part by weight of the active compound, 5 parts by weight of acetone and 1 part by weight of emulsifier and diluted with water was applied directly to the leaves in 2000 L per hectare. The concentration of the spray liquid was so chosen the particular amounts of the active compound desired. 14 days after the treatment, the degree of damage to the plants was rated in % damage in comparison to the development of untreated control.

[2] = test system: Barnyard grass (ECHCG, Echinochloa crus-galli Beauv. var. caudata Kitagawa); assay: Leaf treatment test, herbicidal activity on barnyard grass; assay type: in vivo
Description: as §1
as §2, with “[…],” for “When barnyard grass grown in a green house kept at 20-30° C. had three leaves,”

[3] = leaf treatment 2 g/ha, 14 days after treatment
[4] = leaf treatment 4 g/ha, 14 days after treatment
[5] = leaf treatment 8 g/ha, 14 days after treatment
[6] = leaf treatment 16 g/ha, 14 days after treatment
[7] = leaf treatment 32 g/ha, 14 days after treatment
[8] = leaf treatment 63 g/ha, 14 days after treatment
[9] = leaf treatment 125 g/ha, 14 days after treatment
[10] = leaf treatment 250 g/ha, 14 days after treatment
[11] = leaf treatment 500 g/ha, 14 days after treatment
[12] = leaf treatment 1000 g/ha, 14 days after treatment
[13] = leaf treatment 2000 g/ha, 14 days after treatment
[14] = leaf treatment 4000 g/ha, rated 14 days after treatment vs untreated control, 0% no effect, 100% total destruction

With CC(Oc1ccc(Oc2nc3ccc(Cl)cc3o2)cc1)C(=O)N(C)c1ccccc1F (racemic) [R,S-racemic compound] the “% damage, Rice (4 leaves)” value [1, 3] was 0.0%, the “% damage, Rice (4 leaves)” value [1, 4] was 0.0% and the “% damage, Rice (4 leaves)” value [1, 5] was 0.0%. The “% damage, Rice (4 leaves)” value [1, 6] was 0.0%, the “% damage, Rice (4 leaves)” value [1, 7] was 0.0% and the “% damage, Rice (4 leaves)” value [1, 8] was 0.0%. For the same compound, the “% damage, Rice (4 leaves)” value [1, 9] was 0.0%, the “% damage, Rice (4 leaves)” value [1, 10] was 0.0% and the “% damage, Rice (4 leaves)” value [1, 11] was 0.0%. For the same compound, the “% damage, Rice (4 leaves)” value [1, 12] was 0.0%, the “% damage, Rice (4 leaves)” value [1, 13] was 0.0% and the “% damage, Rice (4 leaves)” value [1, 14] was 3.8%. The “% damage, Barnyard grass (4 leaves)” value [2, 3] was 0.0%, the “% damage, Barnyard grass (4 leaves)” value [2, 4] was 2.5% and the “% damage, Barnyard grass (4 leaves)” value [2, 5] was 45.0%. For the same compound, the “% damage, Barnyard grass (4 leaves)” value [2, 6] was 100%, the “% damage, Barnyard grass (4 leaves)” value [2, 7] was 100% and the “% damage, Barnyard grass (4 leaves)” value [2, 8] was 100%. The “% damage, Barnyard grass (4 leaves)” value [2, 9] was 100%, the “% damage, Barnyard grass (4 leaves)” value [2, 10] was 100% and the “% damage, Barnyard grass (4 leaves)” value [2, 11] was 100%. The “% damage, Barnyard grass (4 leaves)” value [2, 12] was 100%, the “% damage, Barnyard grass (4 leaves)” value [2, 13] was 100% and the “% damage, Barnyard grass (4 leaves)” value [2, 14] was 100%.
In the case of C[C@@H](Oc1ccc(Oc2nc3ccc(Cl)cc3o2)cc1)C(=O)N(C)c1ccccc1F [(R)-compound, (R)-2-[4-(6-chloro-2-benzoxazolyloxy)-phenoxy]propionic acid-N-(2-fluorophenyl)-N-methyl amide], the “% damage, Rice (4 leaves)” value [1, 3] was 0.0%, the “% damage, Rice (4 leaves)” value [1, 4] was 0.0% and the “% damage, Rice (4 leaves)” value [1, 5] was 0.0%. The “% damage, Rice (4 leaves)” value [1, 6] was 0.0%, the “% damage, Rice (4 leaves)” value [1, 7] was 0.0% and the “% damage, Rice (4 leaves)” value [1, 8] was 0.0%. For the same compound, the “% damage, Rice (4 leaves)” value [1, 9] was 0.0%, the “% damage, Rice (4 leaves)” value [1, 10] was 0.0% and the “% damage, Rice (4 leaves)” value [1, 11] was 0.0%. For the same compound, the “% damage, Rice (4 leaves)” value [1, 12] was 2.5%, the “% damage, Rice (4 leaves)” value [1, 13] was 11.3% and the “% damage, Rice (4 leaves)” value [1, 14] was 22.5%. For the same compound, the “% damage, Barnyard grass (4 leaves)” value [2, 3] was 6.3%, the “% damage, Barnyard grass (4 leaves)” value [2, 4] was 62.5% and the “% damage, Barnyard grass (4 leaves)” value [2, 5] was 98.8%. The “% damage, Barnyard grass (4 leaves)” value [2, 6] was 100%, the “% damage, Barnyard grass (4 leaves)” value [2, 7] was 100% and the “% damage, Barnyard grass (4 leaves)” value [2, 8] was 100%. For the same compound, the “% damage, Barnyard grass (4 leaves)” value [2, 9] was 100%, the “% damage, Barnyard grass (4 leaves)” value [2, 10] was 100% and the “% damage, Barnyard grass (4 leaves)” value [2, 11] was 100%. For the same compound, the “% damage, Barnyard grass (4 leaves)” value [2, 12] was 100%, the “% damage, Barnyard grass (4 leaves)” value [2, 13] was 100% and the “% damage, Barnyard grass (4 leaves)” value [2, 14] was 100%.
For C[C@H](Oc1ccc(Oc2nc3ccc(Cl)cc3o2)cc1)C(=O)N(C)c1ccccc1F [(S)-compound], the “% damage, Rice (4 leaves)” value [1, 3] was 0.0%, the “% damage, Rice (4 leaves)” value [1, 4] was 0.0% and the “% damage, Rice (4 leaves)” value [1, 5] was 0.0%. For the same compound, the “% damage, Rice (4 leaves)” value [1, 6] was 0.0%, the “% damage, Rice (4 leaves)” value [1, 7] was 0.0% and the “% damage, Rice (4 leaves)” value [1, 8] was 0.0%. The “% damage, Rice (4 leaves)” value [1, 9] was 0.0%, the “% damage, Rice (4 leaves)” value [1, 10] was 0.0% and the “% damage, Rice (4 leaves)” value [1, 11] was 0.0%. For the same compound, the “% damage, Rice (4 leaves)” value [1, 12] was 0.0%, the “% damage, Rice (4 leaves)” value [1, 13] was 0.0% and the “% damage, Rice (4 leaves)” value [1, 14] was 0.0%. The “% damage, Barnyard grass (4 leaves)” value [2, 3] was 0.0%, the “% damage, Barnyard grass (4 leaves)” value [2, 4] was 0.0% and the “% damage, Barnyard grass (4 leaves)” value [2, 5] was 7.5%. For the same compound, the “% damage, Barnyard grass (4 leaves)” value [2, 6] was 65.0%, the “% damage, Barnyard grass (4 leaves)” value [2, 7] was 92.5% and the “% damage, Barnyard grass (4 leaves)” value [2, 8] was 100%. For the same compound, the “% damage, Barnyard grass (4 leaves)” value [2, 9] was 100%, the “% damage, Barnyard grass (4 leaves)” value [2, 10] was 100% and the “% damage, Barnyard grass (4 leaves)” value [2, 11] was 100%. The “% damage, Barnyard grass (4 leaves)” value [2, 12] was 100%, the “% damage, Barnyard grass (4 leaves)” value [2, 13] was 100% and the “% damage, Barnyard grass (4 leaves)” value [2, 14] was 100%.

Reference: patent US20050043180A1, “Optically active herbicidal (r)-phenoxypropionic acid-n-methyl-n-2-fluorophenyl amides” (priority 2001, published 2005)
